Experimental data published in paper PMC6130489, “Caffeic acid methyl and ethyl esters exert potential antidiabetic effects on glucose and lipid metabolism in cultured murine insulin-sensitive cells through mechanisms implicating activation of AMPK” (Pharmaceutical Biology, 2017).

Tests used:
3T3-L1 pre-adipocytes = test: Thymidine incorporation assay (mitotic clonal expansion); type: cell-based; conditions: Mus musculus, 3T3-L1 cells undergoing mitotic clonal expansion; for IC50: read-out: thymidine incorporation inhibition IC50
Description: To assess for the inhibitory activity of CAME and CAEE on and mitotic clonal expansion of 3T3-L1 adipocytes, cells were separately treated with 12.5, 25, 50 and 100 μM of CAME or CAEE for […] in differentiation media and the incorporation of radio-labeled methyl-^3H-thymidine (MP Biomedicals cat #240410, Irvine, CA) into the newly replicated DNA was measured as described elsewhere (Martineau et al. [2010]). The incorporated radioactivity was measured in a liquid scintillation counter (LKB Wallac 1219 Rackbeta; Perkin Elmer Life and Analytical Sciences, Inc., Boston, MA).
Figure 3. (A and B) Anti-adipogenic effect of CAME and CAEE in 3T3-L1 adipocytes. Cells were treated with several concentrations (12.5, 25, 50 and100 μM) of either CAME or CAEE in DMEM containing 10% FBS and the standard adipogenic cocktail (500 μM 3-isobutyl-1-methylxanthine, 500 nM insulin and 10 μM dexamethasone) for 2 days then in DMEM containing 10% FBS and 500 nM insulin starting from days 2-8 of differentiation. This medium was changed every 2 days. (A) On day 8, lipid content was measured by AdipoRed assay. Results represent the means ± SEM of three independent experiments. *Indicates a significant (p ≤ 0.05) difference, **(p < 0.01), ***(p < 0.001) from the vehicle control group. […] Vehicle-treated cells show the presence of lipid droplets. On the other hand, cells treated with the maximum nontoxic concentration (100 μM) of either CAME or CAEE retained the fibroblast-like morphology of pre-adipocytes and were devoid of lipid droplets. (C) CAME and CAEE inhibit pre-adipocyte clonal expansion. Confluent 3T3-L1 pre-adipocytes undergoing clonal expansion in response to differentiation cues were treated with vehicle or 12.5, 25, 50 and 100 μM of either CAME or CAEE for 20 h and incorporation of ^3H-labeled thymidine was measured. Normalized data are presented as mean ± SEM of three independent experiments. **Indicates a significant (p ≤ 0.01) difference, ***(p < 0.001) from the vehicle control group.

G6Pase = target: T1, G6Pase (Rattus norvegicus, UniProt P43428); test: Enzymatic activity of G6Pase in H4IIE cells; type: cell-based; conditions: at 100 μM, relative to DMSO
T1 sequence (P43428 1-357): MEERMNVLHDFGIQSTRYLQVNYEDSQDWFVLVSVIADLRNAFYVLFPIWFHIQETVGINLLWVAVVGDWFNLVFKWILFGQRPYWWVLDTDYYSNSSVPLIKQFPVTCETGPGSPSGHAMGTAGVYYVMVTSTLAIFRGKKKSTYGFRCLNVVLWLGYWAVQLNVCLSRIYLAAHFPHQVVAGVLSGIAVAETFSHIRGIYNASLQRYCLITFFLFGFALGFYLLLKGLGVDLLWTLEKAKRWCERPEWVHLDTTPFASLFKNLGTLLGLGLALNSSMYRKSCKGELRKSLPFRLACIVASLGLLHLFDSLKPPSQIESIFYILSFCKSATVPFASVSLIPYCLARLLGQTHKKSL
Description: At 90% confluence, H4-IIE cells were treated with 12.5, 25, 50 and 100 μM of either CAME or CAEE in serum free medium. Vehicle (0.1% DMSO)-treated and 100 nM insulin-treated cells served as the negative and positive control respectively. The activity of G6Pase was assessed by measuring the rate of glucose production in the presence of a non-limiting amount of glucose-6-phosphate (G6P) as described elsewhere (Nachar et al. [2013]). Total glucose production was measured using a commercial glucose assay kit (AutoKit Glucose; Wako Diagnostics, Richmond, VA). Protein content was measured using bicinchoninic acid (BCA) assay (Simpson [2008]) and G6Pase activity was expressed in relation to protein content.
Figure 2. CAME and CAEE inhibit G6Pase by mechanisms involving activation of AMPK. (A) H4IIE hepatocytes were treated for 16 h with several concentrations (12.5, 25, 50 and100 μM) of either CAME or CAEE and G6Pase activity was determined colorimetrically using a commercial glucose assay kit as described under Materials and Methods. Data are expressed relative to vehicle control (0.1% DMSO, 0% inhibition). Insulin (100 nM) applied for similar treatment period served as the positive control. (B and C) Cells were treated with the optimal nontoxic concentration of either CAME, CAEE (50 μM each), or DMSO (0.1%) for 18 h, insulin (100 nM), AICAR (1 mM) applied for 30 min served as the positive controls. (B) The upper blot was probed with anti-phospho-AMPK antibody (Thr 172) and the lower blot was probed with anti-pan AMPK. (C) Blots were probed with antibodies against phospho-Akt (Ser 473) or pan-Akt. Immunoblots are representative of three independent experiments with similar results. (D) Data are expressed as phospho-AMPK/pan-AMPK and are given as mean ± SEM from 3 experiments. *p < 0.05 indicates a significant difference, **(p < 0.01), ***(p < 0.001) from the vehicle control group.

## COC(=O)/C=C/c1ccc(O)c(O)c1 [CAME, CA methyl ester]
3T3-L1 pre-adipocytes
  IC50: 39.4 µM
  inhibition at 100 µM: 92.7 ± 2.6%
G6Pase
  inhibition at 100 µM: 62 ± 6.9%

## CCOC(=O)/C=C/c1ccc(O)c(O)c1 [CAEE, caffeic acid ethyl ester]
3T3-L1 pre-adipocytes
  IC50: 13.1 µM
  inhibition at 100 µM: 86.9 ± 3%
G6Pase
  inhibition at 100 µM: 62.7 ± 6%
